Where two headings read alike, the source gives them in different places.
Legend:
[1] = biological target: T1, aromatase (microsomes from the human placenta) (Homo sapiens, UniProt P11511); test: Aromatase inhibition in vitro, tritiated water method, human placenta microsomes; format: biochemical
T1 construct: using microsomes from the human placenta as source of the enzyme; from tissue; host or cells: human placenta microsomes
T1 sequence (P11511 1-503): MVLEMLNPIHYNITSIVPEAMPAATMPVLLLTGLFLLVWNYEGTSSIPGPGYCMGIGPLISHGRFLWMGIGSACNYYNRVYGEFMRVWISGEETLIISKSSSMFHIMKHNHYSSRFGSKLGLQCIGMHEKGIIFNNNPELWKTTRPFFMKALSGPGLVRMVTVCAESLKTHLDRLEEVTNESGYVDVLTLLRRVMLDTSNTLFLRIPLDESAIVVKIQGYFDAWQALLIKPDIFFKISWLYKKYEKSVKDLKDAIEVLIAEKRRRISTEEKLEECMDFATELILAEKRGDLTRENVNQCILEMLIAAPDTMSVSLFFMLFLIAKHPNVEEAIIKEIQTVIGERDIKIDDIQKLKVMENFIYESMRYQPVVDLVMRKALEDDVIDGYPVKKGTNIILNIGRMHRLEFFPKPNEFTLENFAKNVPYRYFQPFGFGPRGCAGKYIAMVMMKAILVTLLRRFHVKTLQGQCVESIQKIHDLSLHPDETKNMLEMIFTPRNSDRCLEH

aromatase (e) = aromatase (e) (UniProt O46512); format: biochemical; conditions: value marked (e); read-out: Activity In vitro IC50(nM), (e)
[2] = test system: uterine hypertrophy induced by androstenedione; test: Activity in vivo: inhibition of uterine hypertrophy induced by androstenedione; design: species or system rat (Sprague-Dawley); conditions: Rattus norvegicus, 96 h, immature female rats, androstenedione 30 mg/kg for 4 days, read-out: % inhibition to doses (μg/Kg); for inhibition in vivo at 0.01 mg/kg: dose 10 μg/Kg; for inhibition in vivo at 0.1 mg/kg: dose 100 μg/Kg; for inhibition in vivo at 1 mg/kg: dose 1000 μg/Kg; for inhibition in vivo at 0.001 mg/kg: dose 1 μg/Kg
Experimental: The activity in vivo of aromatase inhibition by compounds of formula (I) according to the invention has been tested according to the model established by Bharnagar et al. (1990).
In general, immature female rats of the Sprague-Dawley line of a weight ranging from 40 to 50 g have been treated with a dose of androstenedione at 30 mg/kg for 4 days, in the absence or in the presence of doses of various compounds of formula (I).
Four hours after administration of an aromatase inhibitor, the rats were sacrificed. Their uteruses were removed, cleared of adhering fat and conjunctive tissue, next the uteruses were weighed (wet weight). The dry weight of the uteruses was determined the following day after a step of drying for one night at 80° C.

[3] = value marked (h), read-out: Activity In vitro IC50(nM), (h)
[4] = value without (h)/(e) mark, read-out: Activity In vitro IC50

aromatase (e), sequence (O46512 whole entry): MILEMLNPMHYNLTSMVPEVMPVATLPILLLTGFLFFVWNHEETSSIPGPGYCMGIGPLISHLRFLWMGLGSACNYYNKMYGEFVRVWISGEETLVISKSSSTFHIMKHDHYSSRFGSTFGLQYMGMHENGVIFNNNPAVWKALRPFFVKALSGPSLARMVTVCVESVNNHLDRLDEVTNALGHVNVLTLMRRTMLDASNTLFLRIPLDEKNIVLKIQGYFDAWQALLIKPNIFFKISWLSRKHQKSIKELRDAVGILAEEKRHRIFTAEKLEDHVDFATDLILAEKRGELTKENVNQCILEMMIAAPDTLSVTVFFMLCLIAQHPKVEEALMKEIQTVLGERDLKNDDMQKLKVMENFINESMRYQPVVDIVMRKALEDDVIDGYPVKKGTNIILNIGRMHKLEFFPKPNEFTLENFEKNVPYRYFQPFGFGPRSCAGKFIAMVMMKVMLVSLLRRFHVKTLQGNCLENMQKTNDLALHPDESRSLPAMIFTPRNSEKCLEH

## Cn1c(=O)oc2cc(C(c3cccc(C#N)c3)n3ccnc3)ccc21 (centres unmarked) [PC122]
[1]; [3]
  IC50: 18.6 nM
Aromatase (e)
  IC50: 23.2 nM
[2]
  inhibition in vivo at 0.01 mg/kg: 39%
  inhibition in vivo at 0.1 mg/kg: 58%
  inhibition in vivo at 1 mg/kg: 92%

## CCn1c(=O)[se]c2cc(C(c3ccc(C#N)cc3)n3cncn3)ccc21 (centres unmarked) [PC11303, 4-[(3-Ethyl-2-oxo-2,3-dihydro-1,3-benzoselenazol-6-yl)(1H-1,2,4-triazol-1-yl)methyl]benzonitrile]
[1]; [4]
  IC50: 3.99 nM
[2]
  inhibition in vivo at 0.001 mg/kg: 38%
  inhibition in vivo at 0.01 mg/kg: 60%
  inhibition in vivo at 0.1 mg/kg: 71%
other
  melting point: 95 to 98 °C

## N#Cc1ccc(C(c2ccc3[nH]c(=O)oc3c2)n2ccnc2)cc1 (centres unmarked) [PCH113, 6-[(4-Cyanophenyl)(1H-imidazol-1-yl)methyl]-1,3-benzoxazol-2(3H)-one]
[1]; [3]
  IC50: 13.2 nM
Aromatase (e)
  IC50: 14.6 nM
[2]
  inhibition in vivo at 0.01 mg/kg: 19%
  inhibition in vivo at 0.1 mg/kg: 50%
  inhibition in vivo at 1 mg/kg: 94%

## O=c1[nH]c2cc(C(c3ccccc3)n3ccnc3)ccc2o1 (centres unmarked) [PCH124, 5-[1H-Imidazol-1-yl(phenyl)methyl]-1,3-benzoxazol-2(3H)-one]
[1]; [3]
  IC50: 14.9 nM
Aromatase (e)
  IC50: 14.1 nM
[2]
  inhibition in vivo at 0.01 mg/kg: 34%
  inhibition in vivo at 0.1 mg/kg: 71%
  inhibition in vivo at 1 mg/kg: 92%

## Cn1c(=O)sc2ccc(C(c3ccc(C#N)cc3)n3cncn3)cc21 (centres unmarked) [PCH163, 4-[(3-Methyl-2-oxo-2,3-dihydro-1,3-benzothiazol-5-yl)(1H-1,2,4-triazol-1-yl)methyl]benzonitrile]
[1]; [4]
  IC50: 5.78 nM
[2]
  inhibition in vivo at 0.001 mg/kg: 57%
  inhibition in vivo at 0.01 mg/kg: 83%
  inhibition in vivo at 0.1 mg/kg: 95%
other
  melting point: 122 to 125 °C

## CCn1c(=O)sc2ccc(C(c3ccc(C#N)cc3)n3cncn3)cc21 (centres unmarked) [PCH246, 4-[(3-Ethyl-2-oxo-2,3-dihydro-1,3-benzothiazol-5-yl)(1H-1,2,4-triazol-1-yl)methyl]benzonitrile]
[1]; [4]
  IC50: 5.51 nM
[2]
  inhibition in vivo at 0.001 mg/kg: 22%
  inhibition in vivo at 0.01 mg/kg: 45%
  inhibition in vivo at 0.1 mg/kg: 91%
other
  melting point: 125 to 127 °C

## Cn1c(=O)[se]c2cc(C(c3ccc(C#N)cc3)n3cncn3)ccc21 (centres unmarked) [PCH300, 4-[(3-Methyl-2-oxo-2,3-dihydro-1,3-benzoselenazol-6-yl)(1H-1,2,4-triazol-1-yl)methyl]benzonitrile]
[1]; [4]
  IC50: 4.64 nM
[2]
  inhibition in vivo at 0.001 mg/kg: 49%
  inhibition in vivo at 0.01 mg/kg: 86%
  inhibition in vivo at 0.1 mg/kg: 91%
other
  melting point: 154 to 158 °C

## N#Cc1ccc(C(c2ccc3[nH]c(=O)[se]c3c2)n2cncn2)cc1 (centres unmarked) [PCH302, 4-[(2-oxo-2,3-dihydro-1,3-benzoselenazol-6-yl)(1H-1,2,4-triazol-1-yl)methyl]benzonitrile]
[1]; [4]
  IC50: 6.53 nM
[2]
  inhibition in vivo at 0.001 mg/kg: 45%
  inhibition in vivo at 0.01 mg/kg: 20%
  inhibition in vivo at 0.1 mg/kg: 63%
other
  melting point: 223 to 226 °C

## Cn1c(=O)[se]c2cc(C(c3ccc([N+](=O)[O-])cc3)n3cncn3)ccc21 (centres unmarked) [PCH304, 3-Methyl-6-[(4-nitrophenyl)(1H-1,2,4-triazol-1-yl)methyl]-1,3-benzoselenazol-2(3H)-one]
[1]; [4]
  IC50: 3.64 nM
other
  melting point: 190 to 195 °C

## CCn1c(=O)[se]c2cc(C(c3ccc([N+](=O)[O-])cc3)n3cncn3)ccc21 (centres unmarked) [PCH305, 3-Ethyl-6-[(4-nitrophenyl)(1H-1,2,4-triazol-1-yl)methyl]-1,3-benzoselenazol-2(3H)-one]
[1]; [4]
  IC50: 3.7 nM
other
  melting point: 79 to 82 °C

Source: patent publication US20070054899A1 (priority 2003, published 2007)
